Laboratory results taken from paper PMC7679387, “VZHE-039, a novel antisickling agent that prevents erythrocyte sickling under both hypoxic and anoxic conditions” (Scientific Reports, 2020).

Tested on: SS cells
Assay: Antisickling study with SS cells under hypoxia (2.5% O2)
Assay type: cell-based, human
Settings: 20% hematocrit, […] O2, 37 °C
Procedure: For our previously studied compounds (e.g., INN-312, TD-7, SAJ-310, INN-298) that incorporate methoxyPy substitution to vanillin analogs, we observed a significant increase in functional and biological activity as a result of increased protein interactions[31],[33],[35],[36]. We therefore expected similar effects for VZHE-039, which we tested by following VZHE-039 activity (measured by Hb adduct formation, P50-shift and RBC sickling inhibition) using SS blood. Briefly, we incubated 0.5, 1, and 2 mM concentrations of VZHE-039 with whole blood suspensions from subjects with homozygous SCD (Hct of 20%) under hypoxic conditions (2.5% O2/97.5% N2) at 37 °C for 2 h for expected peak adduct. Aliquot blood samples were drawn into a fixative (2% glutaraldehyde solution), and sickling was assessed by microscopy[31],[33],[35],[36]. Aliquot samples were also subjected to cation-exchange HPLC analyses to assess the degree of Hb modification to the high-affinity adduct form (Hb adduct formation), as well as standard O2 equilibrium curves (OEC) to assess P50-shifts using hemox analyzer[31],[33],[35],[36]. […] The improved potency of Voxelotor has been attributed to reduced binding stoichiometry, i.e. while Voxelotor binds Hb at a 1:1 ratio, VZHE-039 binds Hb at a 2:1 ratio. […] This observation, as will be discussed later is likely due to a meaningful contribution from the novel O2-independent antisickling activity as result of the strong contact with the αF-helix.
The effect of VZHE-039 on RBC sickling, Hb modification, and Hb oxygen equilibrium was studied utilizing samples from consented individuals with homozygous SCD following previous procedure. Briefly, blood suspended in Hemox buffer and supplemented with glucose and bovine serum albumin, to a final hematocrit of 20% were incubated under air in the absence or presence of 0.5 mM, 1 mM and 2 mM VZHE-039 at 37 °C for 1 h. This was followed by incubating the suspensions under hypoxic conditions (2.5% O2/97.5% N2) at 37 °C for 2 h. Aliquot samples were obtained and fixed with 2% glutaraldehyde solution without exposure to air, and then subjected to microscopic morphological analysis of bright field images (at × 40 magnification) of single layer cells on an Olympus BX40 microscope fitted with an Infinity 2 camera (Olympus), and the coupled Image Capture software. Leftover samples were washed in phosphate-buffer saline, and hemolyzed in hypotonic lysis buffer for subsequent Hb-modification and oxygen equilibrium analyses.

## O=Cc1c(O)cccc1OCc1cccc(CO)n1 [VZHE-039, 2-((6-(Hydroxymethyl)pyridin-2-yl)methoxy)-6-hydroxybenzaldehyde]
0.5 mM
  Sickling Inhibition: 34.5 ± 2.4%
1 mM
  Sickling Inhibition: 63.7 ± 6.9%
2 mM
  Sickling Inhibition: 92.8 ± 5.5%
Homo sapiens, 0.5 mM, read-out: Sickling Inhibition
  inhibition at 500 µM: 35%
Homo sapiens, 1 mM, read-out: Sickling Inhibition
  inhibition at 1000 µM: 63%
Homo sapiens, 2 mM, read-out: Sickling Inhibition
  inhibition at 2000 µM: 93%
